A short description of data set [1]: Pharmacokinetic study, 4ET-01-021 with IV and PO dosing. It counts as in vivo, CD-1 male mice. The conditions noted are these: for concentration at 24 h: read-out: Clast; for bioavailability: read-out: F (oral bioavailability). How it is done:
4ET-01-021 was dissolved in 10% dimethylacetamide (DMA)/90% propylene glycol (PG) for oral dosing and 10% DMI (dimethyl isosorbide)/15% EtOH (ethanol)/35% PG (propylene glycol)/40% NS (normal saline) for IV dosing. CD-1 male mice were dosed with 4ET-01-021 at 1.0 mg/kg (IV), 3.0 mg/kg (PO), or 10.0 mg/kg (PO). Plasma was collected at indicated timepoints and plasma concentration of 4ET-01-021 was measured using liquid chromatography-mass spectrometry/mass spectrometry (LC-MS/MS).
In mice, following IV administration with 1.0 mg/kg, plasma concentrations declined in a multiphasic manner with an initial concentration (Co) of 0.860 μg/mL and a last measurable concentration (Clast) of 19.3 ng/mL at 24 h post dose. […] Results are presented in Table 13; mean values averaged for 3 animals are shown.
Results are presented in Table 14; mean values averaged for 3 animals are shown.
Results are presented in Table 15; mean values averaged for 3 animals are shown.

The test system of data set [2] is eIF4E phosphorylation. Briefly: In vivo eIF4E phosphorylation in different tissues (Western blot), 4ET-01-021. Particulars: PO 10 mg/kg. More on the design: species or system mice. The text has this: However, 4ET-01-021 minimally-inhibited phosphorylation of eIF4E in the brain, as determined by Western blot analysis of brain tissue from the cortex.
The target in data set [3] is T1, protein kinase G 2 (PKG2) (Homo sapiens, UniProt Q13237).
T1 sequence (Q13237 1-762): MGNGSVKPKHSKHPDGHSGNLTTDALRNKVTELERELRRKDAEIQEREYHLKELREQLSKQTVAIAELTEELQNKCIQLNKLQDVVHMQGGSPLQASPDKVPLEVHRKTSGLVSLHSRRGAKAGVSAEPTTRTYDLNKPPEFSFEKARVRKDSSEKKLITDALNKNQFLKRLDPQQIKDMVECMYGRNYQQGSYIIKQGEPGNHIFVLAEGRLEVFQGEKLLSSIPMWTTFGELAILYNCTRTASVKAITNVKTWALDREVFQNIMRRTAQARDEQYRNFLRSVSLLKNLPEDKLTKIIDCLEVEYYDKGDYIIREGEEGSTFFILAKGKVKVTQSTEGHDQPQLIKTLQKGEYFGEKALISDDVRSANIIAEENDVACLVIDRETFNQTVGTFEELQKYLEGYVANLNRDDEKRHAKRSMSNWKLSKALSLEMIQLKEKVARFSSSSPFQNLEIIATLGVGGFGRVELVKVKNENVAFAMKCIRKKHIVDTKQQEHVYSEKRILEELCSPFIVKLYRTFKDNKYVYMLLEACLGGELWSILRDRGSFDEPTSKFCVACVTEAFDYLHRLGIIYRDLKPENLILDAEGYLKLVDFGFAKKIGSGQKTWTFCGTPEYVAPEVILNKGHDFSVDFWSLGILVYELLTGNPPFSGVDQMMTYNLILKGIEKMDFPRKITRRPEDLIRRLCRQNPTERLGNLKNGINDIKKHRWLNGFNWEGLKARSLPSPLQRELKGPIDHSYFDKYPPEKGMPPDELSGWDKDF
Briefly: Off-target kinase screen PKG2. The format is biochemical. The conditions noted are these: 1 μM test compound. From the text:
These kinases were chosen because they are the only known off-target hit kinases for eFT508. These assays were done using recombinant human kinases (CLK4, DRAK1 and PKG2) in a substrate phosphorylation assay. % activity remaining after MNK inhibitor treatment is indicated in Table 12.

Data set [4] relates to eIF4E phosphorylation at Serine 209 in Karpas 299. Description: eIF4E phosphorylation in Karpas 299 cells (sandwich ELISA). The format is cell-based. Particulars: Homo sapiens, read-out: Karpas 299 cell IC50. As to the method: The ability of MNK inhibitors described herein to inhibit eIF4E phosphorylation at Serine 209 in Karpas 299, Human Non-Hodgkin's Ki-positive Large Cell Lymphoma cell line was tested by sandwich enzyme linked immune-absorbance assay.

Data set [5] concerns p-eIF4E. Briefly: Western blot of eIF4E and p-eIF4E in tissues, 4ET-03-009. It counts as in vivo, mice. The conditions noted are these: 10 mg/kg oral, 2 hours after dosing, vs vehicle. As to the method: In separate mice administered the same therapy, 2 hours after dosing tissues were harvested from the sciatic nerve, liver, brain, and DRG and homogenized, then subjected to Western blot analysis for eIF4E and p-eIF4E. Control mice administered only the solvent vehicle with no MNK inhibitor were also assayed. Amounts of p-eIF4E in each tissue based on the mean for all three mice administered the therapeutic and based on the mean for all three control mice are presented in FIG. 2, right panel. […] Units on the y-axis are % of signal standardized to the control.
On the technique in general: Immunoblotting shows a protein as a band on a membrane.

Setting [6] is: IV 1.0 mg/kg, mean of 3 animals.
[7] abbreviates: male, CD-1, mouse, plasma, po, orally dosed at 3 mg/kg, mean of 3 animals.
Where [8] appears, read: male, CD-1, mouse, plasma, po, orally dosed at 10 mg/kg, mean of 3 animals.
Where [9] appears, read: male, CD-1, mouse, plasma, IV 1.0 mg/kg, mean of 3 animals.
Setting [10] is: orally dosed at 3 mg/kg, mean of 3 animals.
[11] abbreviates: orally dosed at 10 mg/kg, mean of 3 animals.

Structures are written as SMILES. Read-outs that look alike come from different tables or passages of the source.

Consider two molecules from patent publication US20230286983A1 (4E Therapeutics, Inc., priority 2020, published 2023).

What is called AUC(0-t) is the area under the concentration-time curve up to a stated or last time point. A lower AUC(0-t) goes with low exposure. One may read the Cmax as the maximum level reached in the sampled fluid or tissue. By MRT inf is commonly meant a mean duration of stay, worked out from the concentration-time curve. As a reminder, the Tmax is the time at which the peak concentration occurs. The half-life is the time in which the quantity being followed falls by half. A higher half-life goes with slow loss. Usually bioavailability stands for the share of a dose that reaches the circulation, judged against a reference dose that is usually intravenous. A word on the remaining activity: it is the signal under treatment as a percentage of the control signal. Broadly, the IC50 is the concentration needed to halve the response being measured.

`CCC1=CC2(CCC1)NC(=O)c1c(C)cc(Nc3cc(N)ncn3)c(=O)n12` (stereo not drawn) [Compound 4ET-01-021, 6′-((6-Aminopyrimidin-4-yl)amino)-3-ethyl-8′-methyl-2′H-spiro[cyclohexane-1,3′-imidazo[1,5-a]pyridin]-2-ene-1′,5′-dione]: the AUConf/D in data set [1] (setting [6]) came out at 2420 kg·h/kL. The values for the Tlast in data set [1] (setting [6]), in data set [1] (setting [10]) and in data set [1] (setting [11]) were 24.0 h, 24 h and 24 h, respectively. The molecule further returned a V55 in data set [1] (setting [6]) of 3.49 L/kg. For the same molecule, the AUC(0-inf) in data set [1] (male, CD-1, mouse, plasma, iv, 1 mg/kg, IV 1.0 mg/kg, mean of 3 animals, read-out: AUCinf) is 2420 ng·h/mL; in data set [1] (male, CD-1, mouse, plasma, iv, 1 mg/kg, IV 1.0 mg/kg, read-out: total systemic exposure (AUCinf)) it was 2420 ng·h/mL; in data set [1] (male, CD-1, mouse, plasma, po, 3 mg/kg, oral 3 mg/kg, read-out: total systemic exposure (AUCinf)), 4500 ng·h/mL; in data set [1] (male, CD-1, mouse, plasma, po, 3 mg/kg, orally dosed at 3 mg/kg, mean of 3 animals, read-out: AUCinf) it was 4500 ng·h/mL; in data set [1] (male, CD-1, mouse, plasma, po, 10 mg/kg, oral 10 mg/kg, read-out: total systemic exposure (AUCinf)) it was 12000 ng·h/mL; in data set [1] (male, CD-1, mouse, plasma, po, 10 mg/kg, orally dosed at 10 mg/kg, mean of 3 animals, read-out: AUCinf), 12000 ng·h/mL. Moreover, the area under the curve AUC(0-t) in data set [1] (setting [7]) was 4130 ng·h/mL; in data set [1] (setting [8]) it was 11000 ng·h/mL; in data set [1] (setting [9]), 2190 ng·h/mL. Moreover, the Cmax was 643 ng/mL in data set [1] (setting [7]) and 1900 ng/mL in data set [1] (setting [8]). Moreover, the results for the mean residence time (MRT inf) in data set [1] (setting [7]), in data set [1] (setting [8]) and in data set [1] (setting [9]) were 8.41 h, 8.51 h and 8.32 h, respectively. The time of peak concentration (Tmax) in data set [1] (setting [7]) worked out at 0.5 h; in data set [1] (setting [8]) it was 0.25 h. The values for the half-life in data set [1] (setting [7]), in data set [1] (setting [8]) and in data set [1] (setting [9]) were 7.11 h, 7.44 h and 8.42 h, respectively. Besides, the results for the concentration at 24 h in data set [1] (setting [7]), in data set [1] (setting [8]) and in data set [1] (setting [9]) were 36.3 ng/mL, 99.5 ng/mL and 19.3 ng/mL, respectively. Further, the bioavailability came out at 61.9% in data set [1] (setting [7]) and 49.6% in data set [1] (setting [8]). Moreover, the clearance in data set [1] (male, CD-1, mouse, plasma, IV 1.0 mg/kg, mean of 3 animals, read-out: CLp) amounted to 6.97 mL/min/kg. The Vd in data set [1] (male, CD-1, mouse, plasma, IV 1.0 mg/kg, mean of 3 animals, read-out: Vz) was 5.1 L/kg. In addition, the C0 in data set [1] (male, CD-1, mouse, plasma, IV 1.0 mg/kg, read-out: initial concentration (Co)) came out at 860 ng/mL. Moreover, the results for the AUCinf/D in data set [1] (setting [10]) and in data set [1] (setting [11]) were 1500 kg·h/kL and 1202 kg·h/kL, respectively. Besides, in data set [2], the “eIF4E phosphorylation in the brain (cortex)” value is “minimally-inhibited”. Moreover, in data set [2] (2 hours or 4 hours post dose), the “eIF4E phosphorylation in DRGs, sciatic nerve, and spleen” value is recorded as “significant inhibition of eIF4E phosphorylation”.

With `Cc1cc(Nc2cc(NC(=O)C3CC3)ncn2)c(=O)n2c1C(=O)NC21CCOCC1` [Compound 4ET-03-009, N-(6-((8-Methyl-1,5-dioxo-1,2′,3′,5,5′,6′-hexahydro-2H-spiro[imidazo[1,5-a]pyridine-3,4′-pyran]-6-yl)amino)pyrimidin-4-yl)cyclopropanecarboxamide], the remaining activity at 1 µM in data set [3] came to 99%. For the same molecule, the IC50 in data set [4] came out at 6.2 nM. In data set [5], the “p-eIF4E in sciatic nerve, liver, brain and DRG” value is on record as “significantly decreased peIF4E in all tissues assayed”.
